Like-named read-outs stand apart in the source and are kept apart here.
Columns and labels:
[1] = biological target: T1, Cyp21 enzyme (Human HEK 293-Cyp21 stable transfected cells) (Homo sapiens, UniProt P08686); assay: CYP21-HEK293 enzymatic assay (IC50) (Biological Example 11); format: cell-based; details: HEK 293-Cyp21 cells
T1 construct: expressed in transfected cells
T1 sequence (P08686 1-495): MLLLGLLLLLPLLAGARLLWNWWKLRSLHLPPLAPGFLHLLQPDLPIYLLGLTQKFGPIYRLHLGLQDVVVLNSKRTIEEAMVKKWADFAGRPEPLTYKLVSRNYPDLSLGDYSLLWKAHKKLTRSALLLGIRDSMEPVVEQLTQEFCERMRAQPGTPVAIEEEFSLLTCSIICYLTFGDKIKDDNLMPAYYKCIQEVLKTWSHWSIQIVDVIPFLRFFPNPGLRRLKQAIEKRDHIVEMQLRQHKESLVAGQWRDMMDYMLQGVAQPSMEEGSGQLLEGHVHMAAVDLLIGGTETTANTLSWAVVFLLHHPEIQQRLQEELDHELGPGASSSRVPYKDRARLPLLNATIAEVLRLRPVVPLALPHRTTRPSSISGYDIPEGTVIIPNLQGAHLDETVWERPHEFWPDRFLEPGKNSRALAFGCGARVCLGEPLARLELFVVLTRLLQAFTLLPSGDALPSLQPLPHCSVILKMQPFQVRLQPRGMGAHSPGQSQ

[2] = biological target: T2, CYP17 (human testicular microsome) (Homo sapiens, UniProt P05093); assay: CYP17 enzymatic assay (% inhibition at 1 nM) (Biological Example 12); format: biochemical; details: compound at 1 nM
T2 construct: using microsomal fraction from human testis (Celsis Cat #S00110) as the enzyme source; tissue Celsis S00110; host or cells: human testis microsomal fraction
T2 sequence (P05093 1-508): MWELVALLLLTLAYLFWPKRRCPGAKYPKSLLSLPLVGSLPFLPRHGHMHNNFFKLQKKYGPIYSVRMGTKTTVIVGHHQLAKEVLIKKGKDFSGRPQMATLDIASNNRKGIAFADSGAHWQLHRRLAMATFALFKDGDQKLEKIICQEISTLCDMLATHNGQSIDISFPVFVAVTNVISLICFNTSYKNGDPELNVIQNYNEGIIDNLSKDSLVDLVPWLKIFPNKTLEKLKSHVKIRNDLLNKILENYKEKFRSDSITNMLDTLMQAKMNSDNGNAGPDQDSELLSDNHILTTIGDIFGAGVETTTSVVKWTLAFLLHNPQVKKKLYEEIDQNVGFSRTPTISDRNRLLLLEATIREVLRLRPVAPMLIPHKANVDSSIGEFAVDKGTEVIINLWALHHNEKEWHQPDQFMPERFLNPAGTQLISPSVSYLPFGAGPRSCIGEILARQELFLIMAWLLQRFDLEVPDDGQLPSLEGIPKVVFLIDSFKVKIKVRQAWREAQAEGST

[3] = read-out: Biological Example No. 11: CYP21-HEK293 enzymatic assay IC50
[4] = read-out: Biological Example No. 12: CYP17 enzymatic assay % inhibition at 1 nM
[5] = read-out: CYP21-HEK293 enzymatic assay IC50 (Biological Example No. 11)
[6] = read-out: CYP17 enzymatic assay % inhibition at 1 nM (Biological Example No. 12)

Structure (SMILES)	IC50 [1, 3]	inhibition at 0.001 µM [2, 4]	IC50 [1, 5]	inhibition at 0.001 µM [2, 6]
CCC1CC2C(CC[C@]3(C)C(c4cncc(C(F)F)c4)=CCC23)[C@@]2(C)CCC(=O)C=C12 (stereo partly drawn) [Compound 334, (10R,13S)-17-(5-(difluoromethyl)pyridin-3-yl)-6-ethyl-10,13-dimethyl-6,7,8,9,10,11,12,13,14,15-decahydro-1H-cyclopenta[a]phenanthren-3(2H)-one]	> 1000 nM	< 10%		
C[C@]12CCC3C(CCC45CC4NC(=O)CC[C@]35C)C1CC=C2c1cccnc1 (stereo partly drawn) [Compound 387, (5aR,7aS)-5a,7a-dimethyl-8-(pyridin-3-yl)-1a,2,4,5,5a,5b,6,7,7a,10,10a,10b,11,12-tetradecahydrocyclopenta[5,6]naphtho[2,1-c]cyclopropa[b]azepin-3(1H)-one]	> 1000 nM	< 10%		
C[C@]12CCC(=O)C=C1C(C1CC1)C[C@@H]1[C@@H]2CC[C@]2(C)C(c3cncc(F)c3)=CC[C@@H]12 (stereo partly drawn) [Compound 331, (10R,13S)-6-cyclopropyl-17-(5-fluoropyridin-3-yl)-10,13-dimethyl-6,7,8,9,10,11,12,13,14,15-decahydro-1H-cyclopenta[a]phenanthren-3(2H)-one]	> 1000 nM	10 to 50%		
C[C@]12CCC3C(CC=C4C=CCC[C@@]43C)C1=CC=C2c1cccnc1 (stereo partly drawn) [Compound 197, 3-((10R,13S)-10,13-dimethyl-2,7,8,9,10,11,12,13-octahydro-1H-cyclopenta[a]phenanthren-17-yl)pyridine]			> 1000 nM	10 to 50%
C[C@]12CCC3C(CCC4=CC(=O)CC[C@@]43C)C1=CC=C2c1ccc(F)nc1 (stereo partly drawn) [Compound 355, (10R,13S)-17-(6-fluoropyridin-3-yl)-10,13-dimethyl-6,7,8,9,10,11,12,13-octahydro-1H-cyclopenta[a]phenanthren-3(2H)-one]	> 1000 nM	10 to 50%		
CC1CC2C3=CC=C(c4cncc(C(F)F)c4)[C@@]3(C)CCC2[C@@]2(C)CCNC(=O)C=C12 (stereo partly drawn) [Compound 391, (5aR,7aS)-8-(5-(difluoromethyl)pyridin-3-yl)-5a,7a,12-trimethyl-3,4,5,5a,5b,6,7,7a,11,12-decahydrocyclopenta[5,6]naphtho[1,2-d]azepin-2(10bH)-one]	> 1000 nM	< 10%		
CC1CC2C3=CC=C(c4ccc(F)nc4)[C@@]3(C)CCC2[C@@]2(C)CCNC(=O)C=C12 (stereo partly drawn) [Compound 385, (5aR,7aS)-8-(6-fluoropyridin-3-yl)-5a,7a,12-trimethyl-3,4,5,5a,5b,6,7,7a,11,12-decahydrocyclopenta[5,6]naphtho[1,2-d]azepin-2(10bH)-one]	> 1000 nM	10 to 50%		
C[C@]12CCC(=NO)C=C1C1(CC1)C[C@@H]1[C@@H]2CC[C@]2(C)C(c3cccnc3)=CC[C@@H]12 [Compound 362, (6cR,8aS)-10,13-dimethyl-17-(pyridin-3-yl)-1,7,8,9,10,11,12,13,14,15-decahydrospiro[cyclopenta[a]phenanthrene-6,1′-cyclopropan]-3(2H)-one oxime]	> 100 nM	10 to 50%		
C[C@]12CCC(=NO)C=C1C(F)CC1C2CC[C@]2(C)C(c3cccnc3)=CCC12 (stereo partly drawn) [Compound 366, (10R,13S)-6-fluoro-10,13-dimethyl-17-(pyridin-3-yl)-6,7,8,9,10,11,12,13,14,15-decahydro-1H-cyclopenta[a]phenanthren-3(2H)-one oxime]	> 1000 nM	10 to 50%		
C[C@]12CCC(=O)C=C1C(c1ccccc1)CC1C2CC[C@]2(C)C(c3cncc(F)c3)=CCC12 (stereo partly drawn) [Compound 337, (10R,13S)-17-(5-fluoropyridin-3-yl)-10,13-dimethyl-6-phenyl-6,7,8,9,10,11,12,13,14,15-decahydro-1H-cyclopenta[a]phenanthren-3(2H)-one]	> 1000 nM	< 10%		
C[C@]12CC[C@@H](NS(=O)(=O)C3CC3)CC1=CC[C@@H]1[C@@H]2CC[C@]2(C)C(c3cccnc3)=CC[C@@H]12 [Compound 228, N-((3R,10R,13S)-10,13-dimethyl-17-(pyridin-3-yl)-2,3,4,7,8,9,10,11,12,13,14,15-dodecahydro-1H-cyclopenta[a]phenanthren-3-yl)cyclopropanesulfonamide]			> 1000 nM	10 to 50%
Cc1cccc(C)c1C(=O)O[C@H]1CC[C@@]2(C)C(=CCC3C4=CC=C(c5cccnc5)[C@@]4(C)CCC32)C1 (stereo partly drawn) [Compound 196, (3S,10R,13S)-10,13-dimethyl-17-(pyridin-3-yl)-2,3,4,7,8,9,10,11,12,13-decahydro-1H-cyclopenta[a]phenanthren-3-yl 2,6-dimethylbenzoate]			> 1000 nM	< 10%
C[C@]12CCC3C(CCC4=CC(=O)CC[C@@]43C)C1=CC=C2c1cncc(Cl)c1 (stereo partly drawn) [Compound 359, (10R,13S)-17-(5-chloropyridin-3-yl)-10,13-dimethyl-6,7,8,9,10,11,12,13-octahydro-1H-cyclopenta[a]phenanthren-3(2H)-one]	> 1000 nM	10 to 50%		
C[C@]12CC[C@H]3[C@@H](CC(c4ccccc4)C4=CC(=O)CC[C@@]43C)C1=CC=C2c1cccnc1 (stereo partly drawn) [Compound 344, (10R,13S)-10,13-dimethyl-6-phenyl-17-(pyridin-3-yl)-6,7,8,9,10,11,12,13-octahydro-1H-cyclopenta[a]phenanthren-3(2H)-one]	> 1000 nM	10 to 50%		
C[C@]12CCC(=O)C=C1C(n1nccn1)CC1C2CC[C@]2(C)C(c3cccnc3)=CCC12 (stereo partly drawn) [Compound 336, (10R,13S)-10,13-dimethyl-17-(pyridin-3-yl)-6-(2H-1,2,3-triazol-2-yl)-6,7,8,9,10,11,12,13,14,15-decahydro-1H-cyclopenta[a]phenanthren-3(2H)-one]	> 1000 nM	< 10%		
C[C@]12CCC(=O)C=C1C(C1CC1)C[C@@H]1[C@@H]2CC[C@]2(C)C(c3cccnc3)=CC[C@@H]12 (stereo partly drawn) [Compound 339, (10R,13S)-6-cyclopropyl-10,13-dimethyl-17-(pyridin-3-yl)-6,7,8,9,10,11,12,13,14,15-decahydro-1H-cyclopenta[a]phenanthren-3(2H)-one]	> 1000 nM	< 10%		
CC1CC2C3=CC=C(c4cncc(C(F)F)c4)[C@@]3(C)CCC2[C@@]2(C)CCC(=O)C=C12 (stereo partly drawn) [Compound 328, (10R,13S)-17-(5-(difluoromethyl)pyridin-3-yl)-6,10,13-trimethyl-6,7,8,9,10,11,12,13-octahydro-1H-cyclopenta[a]phenanthren-3(2H)-one]	> 1000 nM	< 10%		
CC1CC2C(CC[C@]3(C)C(c4cccnc4)=CCC23)[C@@]2(C)C=CC(=NO)C=C12 (stereo partly drawn) [Compound 367, (10R,13S)-6,10,13-trimethyl-17-(pyridin-3-yl)-6,7,8,9,10,11,12,13,14,15-decahydro-3H-cyclopenta[a]phenanthren-3-one oxime]	> 1000 nM	10 to 50%		
CC1C[C@@H]2[C@H](CC[C@]3(C)C(c4cncc(C(F)F)c4)=CC[C@@H]23)[C@@]2(C)C=CC(=O)C=C12 (stereo partly drawn) [Compound 346, (10R,13S)-17-(5-(difluoromethyl)pyridin-3-yl)-6,10,13-trimethyl-6,7,8,9,10,11,12,13,14,15-decahydro-3H-cyclopenta[a]phenanthren-3-one]	> 1000 nM	10 to 50%		
CC1C(=O)CC[C@@]2(C)C1CC[C@@H]1[C@@H]2CC[C@]2(C)C(c3cccnc3)=CC[C@@H]12 (stereo partly drawn) [Compound 303, (10R,13S)-4,10,13-trimethyl-17-(pyridin-3-yl)-4,5,6,7,8,9,10,11,12,13,14,15-dodecahydro-1H-cyclopenta[a]phenanthren-3(2H)-one]	> 1000 nM	10 to 50%		
CC1CC2C(CC[C@]3(C)C(c4cncc(C(F)F)c4)=CCC23)[C@@]2(C)CCC(=O)C=C12 (stereo partly drawn) [Compound 341, (10R,13S)-17-(5-(difluoromethyl)pyridin-3-yl)-6,10,13-trimethyl-6,7,8,9,10,11,12,13,14,15-decahydro-1H-cyclopenta[a]phenanthren-3(2H)-one]	> 1000 nM	10 to 50%		

Source: patent US20130252930A1 (BIOMARIN PHARMACEUTICAL INC., priority 2010, published 2013)
